Type in all cases: cell-based
One experiment addresses T1, CFTR ΔF508 mutant (Homo sapiens, UniProt P13569, DEL508-508).
T1 construct: expressed in transfected cells; host or cells: CFBE41o- cells, adenoviral transduction
Put plainly: YFP-halide influx assay for the CFTR-ΔF508 mutation (CFBE41o- cells). Conditions: forskolin 10.67 μM; for EC50: from (1−F/F0) vs concentration plot. In outline: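 EC50 derived from plotting 1−F/F0 (fluorescence 36 s after iodide injection over pre-injection value) against compound concentration. Cells: CFBE41o- transduced with ΔF508-CFTR and YFP quench reporter, corrected 24 h at 27° C or by a CFTR modulator at 37° C.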

The target of another experiment is T2, CFTR G551D mutant (Homo sapiens, UniProt P13569, G551D).
T2 construct: expressed in transfected cells; host or cells: HEK293 cells, reverse transfection with plasmids
T2 sequence (P13569 whole entry G551D): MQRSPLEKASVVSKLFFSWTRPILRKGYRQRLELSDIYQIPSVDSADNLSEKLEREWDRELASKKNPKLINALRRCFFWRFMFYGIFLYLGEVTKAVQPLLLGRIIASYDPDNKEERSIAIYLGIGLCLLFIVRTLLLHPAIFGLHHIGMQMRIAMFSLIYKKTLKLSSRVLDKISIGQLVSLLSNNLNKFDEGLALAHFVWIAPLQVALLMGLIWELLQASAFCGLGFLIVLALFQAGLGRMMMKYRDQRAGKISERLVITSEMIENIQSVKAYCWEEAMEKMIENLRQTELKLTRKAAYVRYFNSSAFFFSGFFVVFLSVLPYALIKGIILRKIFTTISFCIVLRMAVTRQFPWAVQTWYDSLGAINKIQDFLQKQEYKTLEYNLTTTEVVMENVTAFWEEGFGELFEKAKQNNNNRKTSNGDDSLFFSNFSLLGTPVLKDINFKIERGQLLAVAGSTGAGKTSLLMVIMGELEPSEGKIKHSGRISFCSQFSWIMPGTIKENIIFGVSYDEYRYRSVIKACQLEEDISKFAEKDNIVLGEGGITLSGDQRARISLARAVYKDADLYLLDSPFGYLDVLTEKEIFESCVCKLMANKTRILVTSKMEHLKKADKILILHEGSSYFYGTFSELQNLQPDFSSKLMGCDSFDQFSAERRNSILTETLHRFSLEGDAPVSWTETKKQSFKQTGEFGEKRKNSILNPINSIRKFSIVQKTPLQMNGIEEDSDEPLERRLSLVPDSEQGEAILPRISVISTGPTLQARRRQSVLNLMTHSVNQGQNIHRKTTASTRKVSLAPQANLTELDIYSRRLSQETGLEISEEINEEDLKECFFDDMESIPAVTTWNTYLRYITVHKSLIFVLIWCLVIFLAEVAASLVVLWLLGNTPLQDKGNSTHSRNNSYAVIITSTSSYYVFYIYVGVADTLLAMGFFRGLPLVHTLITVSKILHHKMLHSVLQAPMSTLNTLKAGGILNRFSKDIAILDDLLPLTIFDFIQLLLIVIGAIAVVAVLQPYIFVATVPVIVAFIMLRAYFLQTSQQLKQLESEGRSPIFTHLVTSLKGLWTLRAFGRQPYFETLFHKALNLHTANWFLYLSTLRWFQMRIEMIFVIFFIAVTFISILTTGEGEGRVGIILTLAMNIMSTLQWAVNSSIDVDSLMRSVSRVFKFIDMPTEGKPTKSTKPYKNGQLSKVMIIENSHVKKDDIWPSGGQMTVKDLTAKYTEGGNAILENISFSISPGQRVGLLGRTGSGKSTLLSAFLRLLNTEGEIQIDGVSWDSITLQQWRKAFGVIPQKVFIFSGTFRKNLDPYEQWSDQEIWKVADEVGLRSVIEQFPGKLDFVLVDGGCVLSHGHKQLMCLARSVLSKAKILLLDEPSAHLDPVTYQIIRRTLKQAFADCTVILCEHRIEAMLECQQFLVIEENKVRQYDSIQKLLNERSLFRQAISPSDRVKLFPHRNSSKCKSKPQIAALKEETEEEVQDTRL
Put plainly: YFP-halide influx assay for the CFTR-G551D mutation (HEK293 cells). The conditions noted are these: forskolin 10.67 μM. In outline: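 Channel opening read as I⁻-driven quenching of a YFP H148Q/I152L/F47L reporter over 7 s post-injection, expressed as 1−F/F0 and fitted against concentration for EC50. Cells were HEK293 co-transfected at seeding with G551D CFTR plus reporter, then grown 24 h at 37 °C, 5% CO2.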

Another experiment concerns the target T3, CFTR-G178R (Homo sapiens, UniProt P13569, G178R).
T3 construct: expressed in transfected cells
Put plainly: YFP-halide influx assay for the CFTR-G178R. The method in brief: (§1)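 HEK293 cells reverse-transfected with a CFTR mutant and YFP H148Q/I152L/F47L halide sensor, expressed 24 h at 37° C. Fluorescence quenching followed for 7 s after I⁻ injection; activity expressed as 1−F/F0, with EC50 fitted from 1−F/F0 versus compound concentration.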

The next experiment addresses T4, CFTR-G1349D (Homo sapiens, UniProt P13569, G1349D).
T4 construct: expressed in transfected cells
Put plainly: YFP-halide influx assay for the CFTR-G1349D. In outline:
as §1

The next experiment deals with T5, CFTR-S549N (Homo sapiens, UniProt P13569, S549N).
T5 construct: expressed in transfected cells
T5 sequence (P13569 whole entry S549N): as the sequence (P13569 whole entry G551D) above, with S549N, D551G counted along it
Put plainly: YFP-halide influx assay for the CFTR-S549N. Details: % Activation: concentration or dose not given beside the values. The method in brief: as §1

The target in a further experiment is T6, CFTR-R117H (Homo sapiens, UniProt P13569, R117H).
T6 construct: expressed in transfected cells
T6 sequence (P13569 whole entry R117H): as the sequence (P13569 whole entry G551D) above, with R117H, D551G counted along it
Put plainly: YFP-halide influx assay for the CFTR-R117H. The method in brief:
as §1

Usually EC50 stands for the concentration at which the effect is half-maximal.

T1 sequence (P13569 with tags, fused parts or gaps DEL508-508): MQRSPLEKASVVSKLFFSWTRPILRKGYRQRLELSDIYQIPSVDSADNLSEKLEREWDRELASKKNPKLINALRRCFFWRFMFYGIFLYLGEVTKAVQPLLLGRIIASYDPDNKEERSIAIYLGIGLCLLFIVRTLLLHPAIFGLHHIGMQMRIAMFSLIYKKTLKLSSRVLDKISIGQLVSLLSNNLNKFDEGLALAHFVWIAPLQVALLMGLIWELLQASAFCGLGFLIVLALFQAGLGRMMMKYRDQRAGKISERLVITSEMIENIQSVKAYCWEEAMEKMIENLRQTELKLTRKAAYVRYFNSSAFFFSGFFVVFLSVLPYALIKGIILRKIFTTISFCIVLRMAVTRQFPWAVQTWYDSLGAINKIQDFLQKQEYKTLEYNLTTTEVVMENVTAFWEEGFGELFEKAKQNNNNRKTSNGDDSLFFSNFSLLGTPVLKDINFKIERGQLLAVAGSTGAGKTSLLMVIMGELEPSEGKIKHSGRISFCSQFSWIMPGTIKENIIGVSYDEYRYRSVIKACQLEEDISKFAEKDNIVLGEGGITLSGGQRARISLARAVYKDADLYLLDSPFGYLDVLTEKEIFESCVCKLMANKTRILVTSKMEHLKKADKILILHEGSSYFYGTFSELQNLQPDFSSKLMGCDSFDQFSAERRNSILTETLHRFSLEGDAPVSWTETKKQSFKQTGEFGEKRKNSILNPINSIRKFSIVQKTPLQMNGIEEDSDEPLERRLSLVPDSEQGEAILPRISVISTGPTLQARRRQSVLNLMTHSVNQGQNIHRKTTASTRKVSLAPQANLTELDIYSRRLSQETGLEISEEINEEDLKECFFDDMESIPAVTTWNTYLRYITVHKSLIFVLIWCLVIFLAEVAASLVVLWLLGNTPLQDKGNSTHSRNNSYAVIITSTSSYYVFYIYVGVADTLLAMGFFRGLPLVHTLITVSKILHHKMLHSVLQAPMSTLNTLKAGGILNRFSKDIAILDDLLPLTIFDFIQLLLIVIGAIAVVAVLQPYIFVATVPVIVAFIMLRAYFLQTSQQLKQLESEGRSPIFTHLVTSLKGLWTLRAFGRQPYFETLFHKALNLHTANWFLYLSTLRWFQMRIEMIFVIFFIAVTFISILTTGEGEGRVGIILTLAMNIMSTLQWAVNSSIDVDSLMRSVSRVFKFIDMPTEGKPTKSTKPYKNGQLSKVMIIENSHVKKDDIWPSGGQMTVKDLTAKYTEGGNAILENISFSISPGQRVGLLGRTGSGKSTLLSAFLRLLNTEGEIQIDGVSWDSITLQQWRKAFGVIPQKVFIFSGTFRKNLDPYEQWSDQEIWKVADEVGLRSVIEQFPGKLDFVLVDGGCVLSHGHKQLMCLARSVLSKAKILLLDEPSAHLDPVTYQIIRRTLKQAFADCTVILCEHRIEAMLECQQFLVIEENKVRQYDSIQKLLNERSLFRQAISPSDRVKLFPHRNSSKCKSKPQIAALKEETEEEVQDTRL
T4 sequence (P13569 whole entry G1349D): as the sequence (P13569 whole entry G551D) above, with D551G, G1349D counted along it
T3 sequence (P13569 whole entry G178R): as the sequence (P13569 whole entry G551D) above, with G178R, D551G counted along it

Regarding `CC(C)(O)CNC(=O)c1ncc(S(=O)(=O)c2ccc(OC(F)(F)F)cc2)cc1N` [Compound 1, 3-amino-N-(2-hydroxy-2-methylpropyl)-5-{[4-(trifluoromethoxy)phenyl]sulfonyl}pyridine-2-carboxamide], the “% Activation” value at CFTR ΔF508 mutant is recorded as 97.9%; on CFTR G551D mutant, 47.1%; at CFTR-G178R it was 82.7%; at CFTR-G1349D, 69.6%; at CFTR-S549N, 72.7%; on CFTR-R117H, 98.5%. In addition, the EC50 at CFTR ΔF508 mutant was 31.4 nM; on CFTR G551D mutant, 700 nM; at CFTR-G178R, 302 nM; at CFTR-G1349D, 265 nM; at CFTR-S549N, 580 nM; at CFTR-R117H, 598 nM.

Consider `CC(O)(CNC(=O)c1ncc(S(=O)(=O)c2ccc(OC(F)(F)F)cc2)cc1N)C(F)(F)F` (stereo not drawn) [Compound 2, 3-amino-N-(3,3,3-trifluoro-2-hydroxy-2-methylpropyl)-5-{[4-(trifluoromethoxy)phenyl]sulfonyl}pyridine-2-carboxamide], for which the “% Activation” value is on record as 104.5% on CFTR ΔF508 mutant; 62.5% on CFTR G551D mutant; 71.8% on CFTR-G178R; 69.4% on CFTR-G1349D; 70.3% at CFTR-S549N; 76.0% on CFTR-R117H. In addition, the EC50 was 4.3 nM at CFTR ΔF508 mutant; 739 nM at CFTR G551D mutant; 494 nM at CFTR-G178R; 567 nM at CFTR-G1349D; 331 nM at CFTR-S549N; 231 nM at CFTR-R117H.

On to `Nc1cc(S(=O)(=O)c2ccc(F)cc2)cnc1C(=O)NC[C@H](O)C(F)(F)F` [Compound 25, 3-amino-5-[(4-fluorophenyl)sulfonyl]-N-[(2S)-3,3,3-trifluoro-2-hydroxypropyl]pyridine-2-carboxamide], for which the “% Activation” value at CFTR ΔF508 mutant came to 108.3%; at CFTR G551D mutant it was 67.2%; at CFTR-G178R, 76.8%; at CFTR-G1349D it was 82.6%; on CFTR-S549N, 82.5%; at CFTR-R117H, 91.3%. The EC50 came out at 8.1 nM at CFTR ΔF508 mutant; 976 nM at CFTR G551D mutant; 211 nM at CFTR-G178R; 412 nM on CFTR-G1349D; 292 nM on CFTR-S549N; 318 nM at CFTR-R117H.

As to `C[C@H](O)CNC(=O)c1ncc(S(=O)(=O)c2ccc(C(F)(F)F)cc2)cc1N` [Compound 100, 3-amino-N-[(2S)-2-hydroxypropyl]-5-{[4-(trifluoromethyl)phenyl]sulfonyl}pyridine-2-carboxamide], the “% Activation” value stood at 96.6% on CFTR ΔF508 mutant; 59.1% at CFTR G551D mutant; 78.7% on CFTR-G178R; 75.5% on CFTR-G1349D; 103.0% at CFTR-S549N; 97.3% on CFTR-R117H. Also, the EC50 was determined as 12.9 nM on CFTR ΔF508 mutant; 1140 nM on CFTR G551D mutant; 546 nM at CFTR-G178R; 533 nM on CFTR-G1349D; 648 nM at CFTR-S549N; 505 nM at CFTR-R117H.

As for `Nc1cc(S(=O)(=O)c2ccc(F)cc2)cnc1C(=O)NC[C@@H](O)C(F)(F)F` [Compound 36, 3-amino-5-[(4-fluorophenyl)sulfonyl]-N-[(2R)-3,3,3-trifluoro-2-hydroxypropyl]pyridine-2-carboxamide], the “% Activation” value was determined as 111.0% at CFTR ΔF508 mutant; 58.4% on CFTR G551D mutant; 79.3% at CFTR-G178R; 82.7% at CFTR-G1349D; 92.9% at CFTR-S549N; 100.8% at CFTR-R117H. Besides, the EC50 is 8.5 nM at CFTR ΔF508 mutant; 667 nM at CFTR G551D mutant; 230 nM at CFTR-G178R; 312 nM on CFTR-G1349D; 294 nM at CFTR-S549N; 148 nM on CFTR-R117H.

The values above are taken from patent US10047051B2, “Substituted pyridines and method of use” (AbbVie S.á{acute over (.)}r.l., priority 2015, dated 2018).
